Experimental data: PMC9151520 (Archives of Toxicology, 2022)
Values joined by “and” are separate entries in the source; they are usually repeats but may differ in a detail not shown here. Equal entries are not always repeated. Where two headings read alike, the source gives them in different places.

Legend:
[1] = test system: p53 signaling (p53RE-bla HCT-116 cells); test: cells; type: cell-based
[2] = test system: p53 signaling (p53RE-bla HCT-116 cells)
[3] = test system: p53 signaling (p53RE-bla HCT-116 cells); remark: listed apart in the source
[4] = read-out: EC50, p53 activation, cherry pick confirmation
[5] = read-out: EC50, p53 activation, primary screening
[6] = Homo sapiens, HCT-116, read-out: p53 activation EC50, primary screening
[7] = Homo sapiens, HCT-116, read-out: p53 activation efficacy, primary screening
[8] = Homo sapiens, HCT-116, read-out: p53 activation EC50, cherry pick confirmation
[9] = Homo sapiens, HCT-116, read-out: p53 activation efficacy, cherry pick confirmation
[10] = Homo sapiens, HCT-116, read-out: EC50, p53 activation, primary screening
[11] = Homo sapiens, HCT-116, read-out: Efficacy, p53 activation, primary screening

SMILES	EC50, p53 activation, cherry pick confirmation [2]	Efficacy, p53 activation, cherry pick confirmation [2]	EC50, p53 activation, cherry pick confirmation [3]	Efficacy, p53 activation, cherry pick confirmation [3]	EC50, viability, cherry pick confirmation (p53RE-bla HCT-116 cells)	EC50, viability, primary screening (p53RE-bla HCT-116 cells)	Efficacy, viability, primary screening (p53RE-bla HCT-116 cells)	EC50 [1, 6] [µM]	Emax [1, 7] [%]	p53 activation EC50, cherry pick confirmation [2]	p53 activation EC50, primary screening [2]	p53 activation efficacy, cherry pick confirmation [2]	p53 activation efficacy, primary screening [2]	p53 activation EC50, cherry pick confirmation [3]	p53 activation EC50, primary screening [3]	p53 activation efficacy, cherry pick confirmation [3]	p53 activation efficacy, primary screening [3]	Viability EC50, cherry pick confirmation (p53RE-bla HCT-116 cells)	Viability EC50, primary screening (p53RE-bla HCT-116 cells)	Viability efficacy, cherry pick confirmation (p53RE-bla HCT-116 cells)	other results
c1cc(OCC2CO2)ccc1Cc1ccc(OCC2CO2)cc1 (stereo not drawn) [Bis[4-(glycidyloxy)phenyl]methane]	inactive	inactive	inactive	inactive	inactive	inactive	inactive	–	–	–	–	–	–	–	–	–	–	–	–	–	Efficacy, p53 activation, cherry pick confirmation [1]: 31.4403; Efficacy, p53 activation, primary screening [1]: 46.3017; EC50 [1, 4]: 26.4 µM; EC50 [1, 5]: 47.6 µM; EC50, p53 activation, primary screening [2]: inactive; Efficacy, p53 activation, primary screening [2]: inactive; EC50, p53 activation, primary screening [3]: inactive; Efficacy, p53 activation, primary screening [3]: inactive; Efficacy, viability, cherry pick confirmation (p53RE-bla HCT-116 cells): inactive
COC(=O)/C=C(\C)OP(=O)(OC)OC [Mevinphos]	–	–	–	–	–	–	–	–	–	–	–	–	–	–	–	–	–	–	–	–	p53 activation EC50 [1]: inactive; p53 activation efficacy [1]: inactive; EC50 [2]: 7.96 µM; p53 activation efficacy [2]: 77.3871 and 64.7167; p53 activation EC50 [3]: inactive; Viability EC50 (p53RE-bla HCT-116 cells): inactive; Viability efficacy (p53RE-bla HCT-116 cells): inactive
N#Cc1c[nH]cc1-c1cccc2c1OC(F)(F)O2 [Fludioxonil]	–	–	–	–	–	–	–	15.6	65.1	inactive	inactive	inactive	inactive	inactive	inactive	inactive	inactive	inactive	inactive	inactive	p53 activation EC50, cherry pick confirmation [1]: inactive; p53 activation efficacy, cherry pick confirmation [1]: inactive; Viability efficacy, primary screening (p53RE-bla HCT-116 cells): inactive
COc1c(C)c2c(c(O)c1C/C=C(\C)CCC(=O)O)C(=O)OC2 [Mycophenolic acid]	–	–	–	–	–	–	–	0.174	42.7	inactive	inactive	inactive	inactive	inactive	inactive	inactive	inactive	inactive	inactive	inactive	EC50 [1, 8]: 0.172 µM; Emax [1, 9]: 58.4%; Viability efficacy, primary screening (p53RE-bla HCT-116 cells): inactive
CCC(C)(NC(=O)c1cc(Cl)c(C)c(Cl)c1)C(=O)CCl (stereo not drawn) [Zoxamide]	–	–	–	–	–	–	–	38	50.7	inactive	inactive	inactive	inactive	inactive	inactive	inactive	inactive	inactive	inactive	inactive	EC50 [1, 8]: 22.3 µM; Emax [1, 9]: 94.8%; Viability efficacy, primary screening (p53RE-bla HCT-116 cells): inactive
CCCCNC(=O)n1c(NC(=O)OC)nc2ccccc21 [Benomyl]	–	–	–	–	–	–	–	11.4	88.9	inactive	inactive	inactive	inactive	inactive	inactive	inactive	inactive	inactive	inactive	inactive	EC50 [1, 8]: 8.93 µM; Emax [1, 9]: 38.5%; Viability efficacy, primary screening (p53RE-bla HCT-116 cells): inactive
COc1c(C)c2c(c(O)c1C/C=C(\C)CCC(=O)OCCN1CCOCC1)C(=O)OC2 [Mycophenolate mofetil]	–	–	–	–	–	–	–	0.163	36.3	inactive	inactive	inactive	inactive	inactive	inactive	inactive	inactive	inactive	inactive	inactive	EC50 [1, 8]: 0.209 µM; Emax [1, 9]: 56.2%; Viability efficacy, primary screening (p53RE-bla HCT-116 cells): inactive
CCOC(=O)CCN(SN(C)C(=O)Oc1cccc2c1OC(C)(C)C2)C(C)C [Benfuracarb]	–	–	–	–	–	–	–	–	–	–	–	–	–	–	–	–	–	–	–	–	p53 activation EC50 [1]: inactive; p53 activation efficacy [1]: inactive; p53 activation EC50 [2]: inactive; p53 activation EC50 [3]: inactive; Viability EC50 (p53RE-bla HCT-116 cells): inactive; Viability efficacy (p53RE-bla HCT-116 cells): inactive
CC(=O)O[C@@H]1C(=O)O[C@H]2[C@@H]1OC(=O)[C@@H]2OC(C)=O [Aceglatone]	inactive	inactive	inactive	inactive	inactive	inactive	inactive	–	–	–	–	–	–	–	–	–	–	–	–	–	EC50, p53 activation, cherry pick confirmation [1]: inactive; Efficacy, p53 activation, cherry pick confirmation [1]: inactive; EC50 [1, 10]: 21.5 µM; Emax [1, 11]: 37.3%; EC50, p53 activation, primary screening [2]: inactive; Efficacy, p53 activation, primary screening [2]: inactive; EC50, p53 activation, primary screening [3]: inactive; Efficacy, p53 activation, primary screening [3]: inactive; Efficacy, viability, cherry pick confirmation (p53RE-bla HCT-116 cells): inactive
CCN(CC)CCNc1ccc(CO)c2sc3ccccc3c(=O)c12 [Hycanthone]	inactive	inactive	inactive	inactive	inactive	inactive	inactive	–	–	–	–	–	–	–	–	–	–	–	–	–	EC50 ([1]; Homo sapiens, HCT-116, read-out: EC50, p53 activation, cherry pick confirmation): 18.4 µM; Emax ([1]; Homo sapiens, HCT-116, read-out: Efficacy, p53 activation, cherry pick confirmation): 500%; Efficacy, viability, cherry pick confirmation (p53RE-bla HCT-116 cells): inactive
Nc1cc(Cl)ccc1O [2-Amino-4-chlorophenol]	inactive	inactive	inactive	inactive	inactive	inactive	inactive	–	–	–	–	–	–	–	–	–	–	–	–	–	EC50, p53 activation, cherry pick confirmation [1]: inactive; Efficacy, p53 activation, cherry pick confirmation [1]: inactive; EC50 [1, 10]: 38.2 µM; Emax [1, 11]: 53.8%; EC50, p53 activation, primary screening [2]: inactive; Efficacy, p53 activation, primary screening [2]: inactive; EC50, p53 activation, primary screening [3]: inactive; Efficacy, p53 activation, primary screening [3]: inactive; Efficacy, viability, cherry pick confirmation (p53RE-bla HCT-116 cells): inactive
Cl.O.c1cnc2c(c1)ccc1cccnc12	inactive	inactive	inactive	inactive	inactive	inactive	inactive	–	–	–	–	–	–	–	–	–	–	–	–	–	Efficacy, p53 activation, cherry pick confirmation [1]: 70.9047; Efficacy, p53 activation, primary screening [1]: 35.453; EC50 [1, 4]: 50.2 µM; EC50 [1, 5]: 25.8 µM; EC50, p53 activation, primary screening [2]: inactive; Efficacy, p53 activation, primary screening [2]: inactive; EC50, p53 activation, primary screening [3]: inactive; Efficacy, p53 activation, primary screening [3]: inactive; EC50 (p53RE-bla HCT-116 cells; read-out: EC50, viability, cherry pick confirmation): 22.1 µM
O=S(=O)(O)c1ccccc1C=Cc1ccc(-c2ccc(C=Cc3ccccc3S(=O)(=O)O)cc2)cc1.[Na].[Na] [Disodium 4,4'-bis(2-sulfostyryl)biphenyl]	–	–	–	–	–	–	–	–	–	–	–	–	–	–	–	–	–	–	–	–	activity outcome in p53-bla assay [1]: also active in the absence of microsomes; p53 activation Efficacy, No MS [1]: 37.8243% and 32.5267%; EC50 ([1]; read-out: p53 activation EC50, No MS): 25.3 µM and 34.2 µM; EC50 [2]: 29.8 µM; EC50 ([2]; read-out: p53 activation EC50, RLM): 29.8 µM and 24.9 µM; activity outcome in p53-bla assay [3]: active; EC50 ([3]; read-out: p53 activation EC50, HLM): 18.8 µM and 28.2 µM; Viability EC50, HLM (p53RE-bla HCT-116 cells): inactive; Viability EC50, No MS (p53RE-bla HCT-116 cells): inactive; Viability EC50, RLM (p53RE-bla HCT-116 cells): inactive; Viability Efficacy, HLM (p53RE-bla HCT-116 cells): inactive; Viability Efficacy, No MS (p53RE-bla HCT-116 cells): inactive; Viability Efficacy, RLM (p53RE-bla HCT-116 cells): inactive
